{"source": "patent US11958829B1", "about": "“3-(4,5-diphenyl-2-(pyridin-3-YL)-1H-imidazol-1-YL)-N,N-dimethylpopan-1-amine as an antimicrobial compound” (KING FAISAL UNIVERSITY, priority 2023, dated 2024)", "key": {"St. Aereus": {"system": "St. Aereus", "test": "Anti-microbial screening, agar dilution", "assay_type": "cell-based", "details": "after 10, 20, 40 and 60 minutes at all dilutions, 1:100, 1:200, 1:400, and 1:800", "experimental": "(§1) The antibacterial properties of the present compound were studied by the method of agar dilution. Test solutions of the compound were prepared in a concentration of 1% using dimethylformamide as a solvent then they are diluted in physiological solution to obtain the final experimental dilutions 1:100, 1:200, 1:400, and 1:800. The effect of these substances were compared with furacillin in a controllable study. The testing microbes used were gram positive bacteria St. Aereus, gram negative bacteria E. Coli, Ps. aeruginosa and Candida albicans fungi were taken. The experiments used for this survey were meat-pentonlu agar (EPA) for cultivation of bacteria and Saburo environment for fungi. Each experiment used 1 ml of test solution on each plate 500 min. Add 2 drops of emulsified with microbes feel. All experimental samples were taken from the agar after 10, 20, 40, and 60 minutes in the environment on the basis of Patrk planted. Bacteria were cultivated at a temperature of 37° C. for 1 day and the mushroom was kept in a thermostat for […] at a temperature of 28° C. Then results were checked."}, "E. Coli": {"system": "E. Coli", "test": "Anti-microbial screening, agar dilution", "assay_type": "cell-based", "details": "after 10, 20, 40 and 60 minutes at all dilutions, 1:100, 1:200, 1:400, and 1:800", "experimental": "as §1"}, "Candida albicans": {"system": "Candida albicans", "test": "Anti-microbial screening, agar dilution", "assay_type": "cell-based", "details": "after 10, 20, 40 and 60 minutes at all dilutions, 1:100, 1:200, 1:400, and 1:800", "experimental": "as §1"}, "Ps. Aeroqonaza": {"system": "Ps. Aeroqonaza", "test": "Anti-microbial screening, agar dilution", "assay_type": "cell-based, Ps. aeruginosa", "details": "after 10, 20, 40 and 60 minutes at all dilutions, 1:100, 1:200, 1:400, and 1:800", "experimental": "as §1"}}, "data": [{"smiles": "CN(C)CCCn1c(-c2cccnc2)nc(-c2ccccc2)c1-c1ccccc1", "note": "[3-(4,5-Diphenyl-2-(pyridin-3-yl)-1H-imidazol-1-yl)-N,N-dimethylpropan-1-amine]", "values": [{"measurement": "inhibition activity, St. Aereus", "setting": "St. Aereus", "result": "highest inhibition activity"}, {"measurement": "inhibition activity, E. Coli", "setting": "E. Coli", "result": "highest inhibition activity"}, {"measurement": "inhibition activity, Candida albicans", "setting": "Candida albicans", "result": "highest inhibition activity"}, {"measurement": "inhibition activity, Ps. aeruginosa", "setting": "Ps. Aeroqonaza", "result": "highest inhibition activity"}, {"measurement": "melting point", "result": "145 to 147", "unit": "°C"}]}]}
